{
  "source": "patent US20070122830A1",
  "about": "“Prohibitin-directed diagnostics and therapeutics for cancer and chemotherapeutic drug resistance” (Aurelium BioPharma Inc., priority 2005, published 2007)",
  "test_system": "MCF-7/ADR xenografts",
  "assay": "Mammary adenocarcinoma xenografts in nude mice, prohibitin siRNA plus chemotherapy",
  "format": "in vivo",
  "experimental": "(§1) In further studies, the efficacy of a prohibitin-targeted therapeutic in treating mammary adenocarcinoma cells (MCF-7/AR) is assessed. Briefly, male […] nude mice 5 to 7 weeks old, weighing 18 g to 22 g, are used for the MCF-7/ADR xenografts. Mice receive a subcutaneous (s.c.) injection of the cells using 5×10^5 cells/inoculation under the shoulder. […] The animal's weight is measured every 4 days. Tumor growth starting on the first day of treatment is measured and the volume of the xenograft is monitored every 4 days. The mice are anaesthetized and sacrificed when the mean tumor weight is over 1 g in the control group. Tumor tissue is excised from the mice and its weight is measured. Tumor weights from mice treated with the prohibitin siRNA and chemotherapeutic drugs are compared to tumor weights from mice treated with control siRNA and chemotherapeutic drugs. Cell counts are compared. All experiments are performed in triplicate.\nas §1, with “treating a” for “treating”, “(MCF-7)” for “(MCF-7/AR)”, “an s.c.” for “a subcutaneous (s.c.)”, “drugs.” for “drugs. Cell counts are compared. All experiments are performed in triplicate.”\nIn further studies, the efficacy of a prohibitin-targeted therapeutic in treating a mammary adenocarcinoma cells (MCF-7) is assessed. Briefly, male […] nude mice 5 to 7 weeks old, weighing 18 g to 22 g, are used for the MCF-7/ADR xenografts. Mice receive an s.c. injection of the cells using […] cells/inoculation under the shoulder.\nLiposome formulations are produced as described previously (Shi et al. (2000) Proc. Natl. Acad. Sci. USA. 97(13): 7567-7572). Briefly, POPC ([…]), DDAB (0.2 μmol), DSPE-PEG 2000 (0.6 μmol), and DSPE-PEG 2000-maleimide (30 nmol) are dissolved in chloroform/methanol (2:1, vol:vol) […] a brief period of evaporation. The lipids are dispersed in 1 ml 0.05 M Tris-HCl buffer, pH 8.0, and are sonicated for 10 min. Prohibitin siRNA is added to the lipids. The liposome/siRNA dispersion is evaporated to a final concentration of 200 mM at a volume of 100 μl. The dispersion is frozen in ethanol/dry ice for 4 to 5 min. The dispersion is then thawed at 40° C. for 1 min. to 2 min., and this freeze-thaw cycle is repeated 10 times. The liposome dispersion is diluted to a lipid concentration of 40 mM, is followed by extrusion 10 times each through two stacks each of 400 nm, 200 nm, 100 nm, and 50 nm pore size polycarbonate membranes, by using a hand held extruder (Avestin, Ottawa). The mean vesicle diameters are determined by quasielastic light scattering using a Microtrac Ultrafine Particle Analyzer (Leeds-Northrup, St. Petersburg, Fla.).\nThe animal's weight is measured every 4 days. Tumor growth starting on the first day of treatment is measured and the volume of the xenograft is monitored every 4 days. The mice are anaesthetized and sacrificed when the mean tumor weight is over 1 g in the control group. Tumor tissue is excised from the mice and its weight is measured. Tumor weights from mice treated with the prohibitin siRNA and chemotherapeutic drugs are compared to tumor weights from mice treated with control siRNA and chemotherapeutic drugs.\nIn further studies, the efficacy of a prohibitin-targeted therapeutic in treating a mammary adenocarcinoma cells (MCF-7) is assessed. […]",
  "key": {"[1]": {"settings": "Example 10, siRNA/liposome formulation"}, "[2]": {"settings": "Example 11, siRNA/immunoliposome formulation"}},
  "data": [
    {"substance": "prohibitin siRNA: siRNA duplex to human prohibitin mRNA nt 425-443; sense 5′-GGAAGUGGUCUGUCUGUUAtt-3′, antisense 5′-UAACAGACAGACCACUUCCtt-3′ (sense GGAAGUGGUCUGUCUGUUATT; antisense UAACAGACAGACCACUUCCTT; chemistry not given here)", "values": [
      {"measurement": "total cell numbers of tumors vs control siRNA", "setting": "Example 8, MCF-7/AR cells", "value": "lower"},
      {"measurement": "tumor weight vs control siRNA", "setting": "Example 8, MCF-7/AR cells", "value": "smaller tumors by weight"},
      {"measurement": "total cell number in tumors vs control siRNA", "setting": "Example 9, MCF-7", "value": "lower"},
      {"measurement": "tumor weight vs control siRNA", "setting": "Example 9, MCF-7", "value": "smaller tumors by weight"},
      {"measurement": "total cell number in tumors vs control siRNA", "setting": "[1]", "value": "lower"},
      {"measurement": "tumor weight vs control siRNA", "setting": "[1]", "value": "smaller tumors by weight"},
      {"measurement": "total cell number in tumors vs control siRNA", "setting": "[2]", "value": "lower"},
      {"measurement": "tumor weight vs control siRNA", "setting": "[2]", "value": "smaller tumors by weight"}
    ]}
  ]
}
